From ChEMBL document CHEMBL1201862, “PubChem BioAssay data set” (2004)
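Cells were grown in 96-well plates and exposed to each compound for 48 hours at five concentrations; endpoints were interpolated linearly between bracketing concentrations, or set to the highest concentration if not reached. The concentration for 50% growth inhibition is given as GI50.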 Calls of active or inactive are those of the source. Cut-off read from the data, not from the text of the source: active = GI50 up to about 1.1 µM and inactive = higher.

Key:
Assay in all cases: NCI anticancer screen, dose series, 48 h
[1] = test system: DMS-114
[2] = test system: HOP-18
[3] = test system: KM-20L2
[4] = test system: M19-MEL
[5] = test system: RXF 631
[6] = test system: SNB-78
[7] = test system: XF498
[8] = test system: BT-549
[9] = test system: Hs-578T

Measured: GI50

O=C(CC(=O)C1CCOC1=O)C(=O)Nc1cccc(Cl)c1 (centres undefined)
inactive: [1] > 100 µM | [2] > 100 µM | [3] > 100 µM | [4] > 100 µM | [5] > 100 µM | [6] > 100 µM

O=C(O)C(CS)NCc1c2ccccc2nc2ccccc12 (centres undefined)
inactive: [3] 41.6 µM | [4] 34.9 µM | [5] 22.3 µM | [7] 15.5 µM

O=S(=O)(/C=C/c1ccc(F)cc1)Cc1ccc(CS(=O)(=O)/C=C/c2ccc(F)cc2)cc1
inactive: [1] > 100 µM | [2] > 100 µM | [3] > 100 µM | [4] > 100 µM | [5] > 100 µM | [6] > 100 µM | [7] > 100 µM

[N-]=[N+]=Nc1c(Br)c(=O)[nH]c(=O)n1COCCO
inactive: [1] > 100 µM | [2] > 100 µM | [4] > 100 µM | [5] > 100 µM | [6] > 100 µM | [7] > 100 µM

COC(=O)c1ccccc1NC(=O)C(=O)Cc1nc2c3c(ccc2nc1O)C(=O)c1ccccc1C3=O
inactive: [1] 7.62 µM | [2] > 100 µM | [3] 32.7 µM | [4] 6.56 µM | [5] 25.2 µM | [6] 34 µM | [7] 26.7 µM

COc1ccc2nc3cc(Cl)ccc3c(Sc3ccc(NC(C)=O)cc3)c2c1
inactive: [1] 6.84 µM | [2] > 29.9 µM | [3] > 21.3 µM | [4] 10.9 µM | [5] 8.85 µM | [6] 5.6 µM

CN1C=C(C(N)=O)C2CC(O)[C@@](NC(=O)CS(N)(=O)=O)(C(=O)O)C2C1 (some centres undefined)
inactive: [1] 2.52 µM | [2] 8.41 µM | [3] 3.79 µM | [4] 4.39 µM | [5] 2.98 µM | [6] 2.75 µM | [7] 1.27 µM

CN1C(=O)CNS1(=O)=O
inactive: [1] > 100 µM | [5] > 100 µM | [6] > 100 µM | [7] > 100 µM

NC(CCC(=O)NC(CSSCCCCS(=O)O)C(=O)NCC(=O)O)C(=O)O (centres undefined)
inactive: [1] > 100 µM | [2] > 100 µM | [3] > 100 µM | [4] > 100 µM | [5] > 100 µM | [6] > 100 µM | [7] > 100 µM

CC(=O)OC1COC(N2C(=O)C(=O)c3cc(Br)ccc32)C(OC(C)=O)C1OC(C)=O (centres undefined)
inactive: [1] > 100 µM | [2] > 100 µM | [3] > 100 µM | [4] 52.1 µM | [5] > 100 µM | [6] > 100 µM | [7] > 100 µM

COc1ccccc1NC(=O)C1=C(C)NC(C)=C(C(=O)Nc2ccccc2OC)C1c1ccccc1OC
inactive: [1] 85.5 µM | [2] > 100 µM | [3] > 100 µM | [4] > 100 µM | [5] > 100 µM | [6] > 100 µM

O=C(CC(=O)N1N=C(c2ccccc2)C(/N=N/c2ccc(Cl)cc2)C1=O)Nc1ccccc1Cl (centres undefined)
inactive: [1] 90.6 µM | [2] 24.2 µM | [3] 80.9 µM | [4] 51.3 µM | [5] 40.6 µM | [6] 64 µM | [7] 35.7 µM

Cc1cc(Cl)cc2c1NC(=O)C2(O)CC(=O)c1ccco1 (centres undefined)
inactive: [8] > 100 µM | [1] > 100 µM | [2] 4.33 µM | [9] 88.9 µM | [4] 15.6 µM | [5] > 100 µM | [6] > 100 µM | [7] > 100 µM

COC(=O)C(C(=O)C(N)=O)c1csc(-n2nc(-c3ccccc3)cc2-c2ccccc2)n1 (centres undefined)
inactive: [1] 12.8 µM | [2] 15.6 µM | [3] 27.4 µM | [4] > 31.6 µM | [5] > 10 µM | [6] > 31.6 µM | [7] 25.2 µM
